In patent US10682319B2, “Necrosis inhibitors” (National Institute of Biological Sciences, Beijing, priority 2014, dated 2020):

system: HT-29 cells; assay: Necrosis assay (TNF-α/Smac mimetic/z-VAD induced necrosis, cell viability by ATP level); assay type: cell-based; conditions: HT-29, TNF-α + Smac mimetic + z-VAD, 24 hrs, ATP level; values given as ranges in nM; read-out: EC50 (inhibition of necrosis in HT-29 cells)
Experimental: HT-29 cells were cultured in McCoy's 5 A culture medium (Invitrogen). On day one, HT-29 cells were plated in 96-well assay plates at density of 2,500-3,500 cells per well. On day two, necrosis were induced by adding 20 ng/ml TNF-α (T), 100 nM Smac mimetic (S), and […] z-VAD (Z). At the same time, […] compound from a chemical library of ˜200,000 compounds was delivered into each well. After 24 hrs treatment, cell viability was determined by measuring ATP level using the CellTiter-Glo Luminescent Cell Viability Assay kit. A CellTiter-Glo Assay (Promega) was performed according to the manufacturer's instructions Luminescence was recorded with a PerkinElmer EnSpire Multimode Plate Reader. Survived cells were normalized to those cells treated with DMSO. Nec-1 was used as a positive control for screening necrosis inhibitors. Data are represented as mean±standard deviation of duplicates
Dose-dependent inhibition of necrosis by the compounds in HT-29 cells were determined by measuring ATP levels as described above.

SMILES	EC50 [nM]
CCC(C)(C)C(=O)N(C)Cc1cccs1 [Compound 40, N,2,2-trimethyl-N-(thiophen-2-ylmethyl)butanamide]	1 to 1000
CN(Cc1cc(F)cc(F)c1F)C(=O)C1(C(F)(F)F)CCC1 [Compound 84, N-methyl-N-(2,3,5-trifluorobenzyl)-1-(trifluoromethyl)cyclobutanecarboxamide]	1 to 1000
CCC(C)(C)C(=O)N(C)Cc1cccc(Cl)c1 [Compound 18, N-(3-chlorobenzyl)-N,2,2-trimethylbutanamide]	1 to 1000
CCC(C)(C)C(=O)N(C)Cc1cc(F)cc(F)c1 [Compound 26, N-(3,5-difluorobenzyl)-N,2,2-trimethylbutanamide]	1 to 1000
CCC(C)(C)C(=O)N(Cc1ccccc1)OC(C)=O [Compound S3, N-acetoxy-N-benzyl-2,2-dimethylbutanamide]	1 to 1000
CCC(C)(C)C(=O)N(CCO)Cc1cc(F)cc(F)c1F [Compound 77, N-(2-hydroxyethyl)-2,2-dimethyl-N-(2,3,5-trifluorobenzyl)butanamide]	1 to 1000

same assay, conditions: Homo sapiens, HT-29, 24 h, HT-29, TNF-α + Smac mimetic + z-VAD, 24 hrs, ATP level; values given as ranges in uM; read-out: EC50 (inhibition of necrosis in HT-29 cells)

SMILES	EC50 [nM]
CCC(C)(C)C(=O)N(CCCOC)Cc1cccc(F)c1 [Compound 63, N-(3-fluorobenzyl)-N-(3-methoxypropyl)-2,2-dimethylbutanamide]	1000 to 100000
CCN(Cc1ccc(F)cc1F)C(=O)C(C)(C)CC [Compound 29, N-(2,4-difluorobenzyl)-N-ethyl-2,2-dimethylbutanamide]	1000 to 10000
CCC(C)(C)C(=O)N(C)C(COC)c1ccccc1 (stereo not drawn) [Compound 112, N-(2-methoxy-1-phenylethyl)-N,2,2-trimethylbutanamide]	1000 to 100000
CCC(C)(C)C(=O)N(C)Cc1ccc(N2CCCCC2)c([N+](=O)[O-])c1 [Compound 30, N,2,2-trimethyl-N-(3-nitro-4-(piperidin-1-yl)benzyl)butanamide]	1000 to 100000
CCC(C)(C)C(=O)N(O)C(CO)c1ccccc1 (stereo not drawn) [Compound 150]	1000 to 100000
CCC(C)(C)C(=O)N(C)Cc1cc(C)cc(C)c1 [Compound 32, N-(3,5-dimethylbenzyl)-N,2,2-trimethylbutanamide]	1000 to 100000
CC(C)N(C)C(=O)N(C)Cc1cc(F)cc(F)c1F [Compound 120, isopropyl-1,3-dimethyl-3-(2,3,5-trifluorobenzyl)urea]	1000 to 10000
CON(Cc1ccc(F)cc1F)C(=O)C(C)(C)C(C)(F)F [Compound S16]	1000 to 100000
CN(Cc1cc(F)cc(F)c1F)[S+]([O-])C(C)(C)C (stereo not drawn) [Compound 78, N,2-dimethyl-N-(2,3,5-trifluorobenzyl)propane-2-sulfinamide]	1000 to 100000
CCC(C)(C)C(=O)NCc1cccnc1 [Compound 9, 2,2-dimethyl-N-(pyridin-3-ylmethyl)butanamide]	1000 to 10000
CCC(C)(C)C(=O)NCc1cccc(Br)c1 [Compound 6, N-(3-bromobenzyl)-2,2-dimethylbutanamide]	1000 to 10000
CCC(C)(C)C(=O)N(C)Cc1cccc(C(=O)OC)c1 [Compound 23, methyl 3-((N,2,2-trimethylbutanamido)methyl)benzoate]	1000 to 100000
CCC(C)(C)C(=O)N(Cc1ccc(F)cc1F)OC [Compound 131]	1000 to 100000
CC1CCCN(C(=O)N(C)Cc2cc(F)cc(F)c2F)C1 (stereo not drawn) [Compound 118, N,3-dimethyl-N-(2,3,5-trifluorobenzyl)piperidine-1-carboxamide]	1000 to 100000
CC(F)(F)C(C)(C)C(=O)N(O)Cc1ccc(F)cc1 [Compound S9]	1000 to 100000
CCC(C)(C)C(=O)N(C)Cc1c(F)ccc(C)c1F [Compound 50, N-(2,6-difluoro-3-methylbenzyl)-N,2,2-trimethylbutanamide]	1000 to 10000
CCC(C)(C)C(=O)N(C)Cc1sccc1C [Compound 41, N,2,2-trimethyl-N-((3-methylthiophen-2-yl)methyl)butanamide]	1000 to 10000
CC(C)(C)C(=O)NCc1cc(F)cc(F)c1F [Compound S1, N-(2,3,5-trifluorobenzyl)pivalamide]	1000 to 10000
